Test results reported in paper PMC8574098 (Journal of natural products, 2021).

Biological target: matrix metalloproteinase-3 (MMP-3) (Homo sapiens, UniProt P08254)
Assay: MMP-3 enzyme inhibition assay
Type: biochemical

matrix metalloproteinase-3 (MMP-3), sequence (P08254 100-477): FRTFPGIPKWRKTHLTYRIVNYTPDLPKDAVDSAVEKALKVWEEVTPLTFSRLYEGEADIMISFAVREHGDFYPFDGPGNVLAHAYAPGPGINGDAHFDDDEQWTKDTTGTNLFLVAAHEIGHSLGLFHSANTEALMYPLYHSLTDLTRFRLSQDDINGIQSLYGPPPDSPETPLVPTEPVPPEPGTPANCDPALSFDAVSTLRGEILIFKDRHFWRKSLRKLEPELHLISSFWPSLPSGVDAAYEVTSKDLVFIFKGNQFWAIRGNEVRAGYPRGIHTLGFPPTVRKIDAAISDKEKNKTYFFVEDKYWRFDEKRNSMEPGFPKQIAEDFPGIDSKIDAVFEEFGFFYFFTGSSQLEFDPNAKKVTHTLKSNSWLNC

IC50: 50 µM
Substance: berkeleypenostatin E [compound 5]
